# Experimental data from patent US20060263802A1 (priority 2003, published 2006).
# Assays:
# Assay type in all cases: binding
# [1] = tested on: human monoclonal antibody CRJA
# [2] = tested on: human monoclonal antibody CR57
# [3] = tested on: human monoclonal antibody CR57; remark: listed apart in the source
# [4] = tested on: human monoclonal antibody CRJB
# [5] = tested on: human monoclonal antibody CRJB; remark: listed apart in the source
# [6] = tested on: human monoclonal antibody CRJA; remark: listed apart in the source
Sequence,Binding of CRJA to linear peptide (PEPSCAN-ELISA signal) [1],Binding of CR57 to linear peptide (PEPSCAN-ELISA signal) [2],Binding of CR57 (10 μg/ml) to looped/cyclic peptide (PEPSCAN-ELISA) [3],Binding of CRJB to linear peptide (PEPSCAN-ELISA signal) [4],Binding of CRJB (10 μg/ml) to looped/cyclic peptide (PEPSCAN-ELISA) [5],Binding of CRJA (10 μg/ml) to looped/cyclic peptide (PEPSCAN-ELISA) [6],Binding of CR57 (10 μg/ml) to looped/cyclic peptide (PEPSCAN-ELISA signal) [3],Binding of CRJB (10 μg/ml) to looped/cyclic peptide (PEPSCAN-ELISA signal) [5],Binding of CRJA (10 μg/ml) to looped/cyclic peptide (PEPSCAN-ELISA signal) [6]
LCGVLGLRLMDGTWV,111,83,128,138,104,106,–,–,–
LDALESIMTTKSVSF,92,97,108,116,106,90,–,–,–
LDKLGPWSPIDIHHL,59,55,–,99,–,–,93,65,82
LDPYDRSLHSRVFPS,113,99,–,142,–,–,88,83,98
LESIMTTKSVSFRRL,94,48,94,114,78,91,–,–,–
LESSVIPLVHPLADP,110,90,120,128,128,114,–,–,–
LGLRLMDGTWVAMQT,113,102,92,115,108,97,–,–,–
LGMSCDIFTNSRGKR,100,76,–,110,–,–,102,105,104
LGPDGNVLIPEMQSS,99,100,150,134,94,104,–,–,–
LGPWSPIDIHHLSCP,84,69,–,112,–,–,88,83,72
LHDFRSDEIEHLVVE,110,93,40,115,65,90,–,–,–
